From patent US6846674B2, “Genetically modified fibroblast cells” (Deutsche Krebsforschungszentrum Stiftung des Offentlichen …, priority 2000, dated 2005) come the findings set out here.

For experiment [1], the system named is keratinocytes (epithelial formation and differentiation). Briefly: organotypical cultures with c-jun −/− fibroblasts, application of cytokines. Type of experiment: cell-based, human. The note with it: for phenotype obtained in organotypical cultures with c-jun −/−: FIG. 6. As for the experimental part: Type 1 collagen was prepared from rat tail tendons and provided at a concentration of 4 mg/ml in 0.1% acetic acid as rdady-to-use solution (Smola et al., 1993). The collagen gels used consisted of 80% by volume of 4 mg/ml collagen in 0.1% acetic acid, 10% by volume Hank's salt solution (concentrated tenfold) and 10% by volume FCS with or without cells (2×10^5 cells/ml). The liquid collagen was admixed with Hank's solution on ice and neutralized with 5 M NaOH with stirring (trypsinated cells taken up in FCS can then be added to the collagen solution by stirring). The gel solution was poured into cell culture dishes or 2.5 ml each into filter inserts (3 μm pore size, Becton Dickinson, Heidelberg, Germany) and allowed to stay in an incubator to form a gel for 1 hour. Sterile glass rings having an internal diameter of 18 mm (1.5 mm wall thickness, 12 mm height) were placed onto the gels and slightly pressed thereon. Following 1 h in the incubator, the collagen gels were equilibrated in DMEM with 10% FCS. After 24 h, the medium was withdrawn from the glass rings and 1 ml keratinocyte suspension (9×10^5 cells/ml FAD) each were seeded into the glass ring interior. After 24 h of incubation, the medium was removed from the keratinocytes so as to expose the cells to air. This time was defined as day 0 of the organotypcial cultures. DMEM having 10% FCS was exchanged every other day, the medium level in this case bordering on the top gel rim. For histological or immunohistochemical processing, the cultures were fixed or frozen. In order to detect proliferating cells in a culture by immunohistochemical methods, the cultures BrdU (Sigma) were added to the medium at a concentration of 65 μM 12 h prior to fixing.
2D cocultures on plastic dishes or glass slides or in 3D form as organotypical cultures were incubated in corresponding standard medium for 24 h. Thereafter, medium enriched with cytokines was added and the cultures were incubated therewith depending on the experiment for several hours or days, the medium being changed with factor added every other day. Supplier of the growth factors and antibodies: KGF (BTS, St. Leon, Germany); anti-GM-CSF, polyclonal, neutralizing (R&D-Systems, Wiesbaden, Germany); GM-CSF (Boehringer Mannheim, Germany) and anti-KGF, monoclonal, neutralizing (R&D-Systems).
In the case of monolayer cultures of adherent cells, the medium was withdrawn from the cells and the cells were fixed on the glass slides in 80% methanol for 5 min. and 100% acetone for 3 min. The slides were then dried and stored at −40° C. For the production of paraffin preparations, organotypical cocultures or skin biopsies wee fixed in 3.5% formaldehyde (in PBS+) for at least 24 h, and initially embedded in agar and then in paraffin (Medim, Vogel company, GieβSen, Germany). The preparations were cut into 2 μm sections which were stained histologically with hematoxylin (15 min.) and eosin (5 min.). Following deparaffinization it was also possible to use the paraffin sections for immunohistochemical analyses. For the production of frozen preparations, skin samples or organotypical cocultures were frozen on cork platelets in embedding gel (“Tissue Teck”, O.C.T., Frankfurt, Germany) on liquid nitrogen. The preparations were stored at −80° C. 5-μm sections were prepared using a freezing microtome, placed onto silanized slides and used for immunohistochemical analyses.
Paraffin sections were deparaffinized in a descending alcohol series and rinsed in PBS. Thereafter, the epitopes on the tissue sections were made accessible by boiling the sections in “Tuf” solution for 5 min. (Advanced Biotechnologies, Hamburg, Germany) and 0.1% trypsin at 37° C. or microwave treatment in 0.1 M citrate buffer for 30 min. Freeze sections were fixed in 80% methanol for 5 min., then in acetone for 2 min. For detecting the incorporation of BrdU (proliferation assay), the sections were incubated in 1.5 M HCI for 10 min. to denature the DNA strands. […]

Experiment [2] relates to primary human keratinocytes. Nature of the experiment: 2D coculture of c-jun −/− c-JunER™ fibroblasts with primary human keratinocytes. Type of experiment: cell-based. The note with it: 100 nM every 12 hours, three days, immunofluorescence. The text has this: The corresponding controls remained untreated.

Entries after “also recorded” stand apart in the source; their conditions may differ.

“GM-CSF: cytokine GM-CSF (Boehringer Mannheim, Germany)”: the “phenotype obtained in organotypical cultures with c-jun −/−” value in experiment [1] is “can partially be reversed”. In experiment [1] (c-jun −/− fibroblasts), the K1/K10 expression entry was “expressed late”, the “differentiation status of the epithelium” value is on record as “does not correspond to the normal condition”, the epithelial formation entry is recorded as “eliminates the reduced epithelial formation; also recorded: effects an enhanced epithelial formation” and the “loricrin expression (timing)” value is given as “expressed prematurely”. Further, the “transglutaminase, filaggrin and loricrin expression” value in experiment [1] (c-jun −/− fibroblasts) is given as “expressed enhancedly”.

For the molecule `CC/C(=C(\c1ccc(O)cc1)c1ccc(OCCN(C)C)cc1)c1ccccc1` [4-OH-tamoxifen], in experiment [2], the “enhanced expression of the differentiation marker K1/K10” value is listed as “can be eliminated again”.

B1: KGF: cytokine / growth factor KGF (BTS, St. Leon, Germany) (protein, UniProt P21781 32-194, looked up)
Fibroblast growth factor 7: CNDMTPEQMATNVNCSSPERHTRSYDYMEGGDIRVRRLFCRTQWYLRIDKRGKVKGTQEMKNNYNIMEIRTVAVGIVAIKGVESEFYLAMNKEGKLYAKKECNEDCNFKELILENHYNTYASAKWTHNGGEMFVALNQKGIPVRGKKTKKEQKTAHFLPMAIT
As to B1, the “phenotype obtained in organotypical cultures with c-jun −/−” value in experiment [1] is “can partially be reversed”. For the same molecule, in experiment [1] (c-jun −/− fibroblasts), the “differentiation status of the epithelium” value is recorded as “the full differentiation status is not restored” and the epithelial formation result was “eliminates the reduced epithelial formation”. The “granular layer and expression of the differentiation markers filaggrin and loricrin” value in experiment [1] (c-jun −/− fibroblasts, histology) is “lack”.
